Test results as given in the supplement of paper PMC11616607.

Experiments:
Assay in all cases: drug sensitivity score (DSS) from 5-point dose-response viability curve (DSS (area-under-curve based score)); higher = more sensitive (stronger growth inhibition or killing); extreme values may be limits of the assay
Conditions in all cases: exposure time: 72 h; concentration range: 5 concentrations over 10,000-fold range
[1] = test system: CAOV3
In short: (§1)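 Viability of ovarian cancer and normal ovarian cell lines was read by CellTiter-Glo luminescence after 3 days at 37°C and 5% CO2 in 384-well plates holding 1,500 cells per well. Drugs had been dispensed in DMSO or water with an Echo 550 at five concentrations over a 10,000-fold range. Using Breeze software, a drug sensitivity score was assigned per cell line and drug, higher scores meaning more sensitive, and zero means no response.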

[2] = test system: COV318
In short: as §1

[3] = test system: COV362
In short: as §1

[4] = test system: HOSE1C
In short: as §1

[5] = test system: HOSE2C
In short: as §1

[6] = test system: JHOS2
In short: as §1

[7] = test system: Kuramochi
In short: as §1

[8] = test system: OV90
In short: as §1

[9] = test system: OVCAR4
In short: as §1

[10] = test system: OVCAR5
In short: as §1

[11] = test system: OVCAR8
In short: as §1

[12] = test system: Ovsaho
In short: as §1

Row | SMILES | drug sensitivity score [1] | drug sensitivity score [2] | drug sensitivity score [3] | drug sensitivity score [4] | drug sensitivity score [5] | drug sensitivity score [6] | drug sensitivity score [7] | drug sensitivity score [8] | drug sensitivity score [9] | drug sensitivity score [10] | drug sensitivity score [11] | drug sensitivity score [12]
1 | O=C(c1ccc(F)c(F)c1Nc1ccc(I)cc1F)N1CC(O)([C@@H]2CCCCN2)C1 [Cobimetinib] | 8.5 | 0 | 3.5 | 0.9 | 3 | 4 | 4.6 | 25.7 | 1.4 | 8.8 | 2.4 | 8.9
2 | COc1c(OCCCN2CCOCC2)ccc2c1N=C(NC(=O)c1cnc(N)nc1)N1CCN=C21 [Copanlisib] | 9.9 | 3.8 | 2.5 | 4.8 | 6.6 | 2.6 | 8 | 3.5 | 5.3 | 10.4 | 5.7 | 6.3
3 | CC[C@]12C=CCN3CC[C@@]4(c5cc([C@@]6(C(=O)OC)C[C@@H]7C[C@@H](C(C)(F)F)CN(Cc8c6[nH]c6ccccc86)C7)c(OC)cc5N(C)[C@H]4[C@@](O)(C(=O)OC)[C@@H]1OC(C)=O)[C@@H]32 [Vinflunine] | 4.3 | 0.7 | 1.3 | 3.6 | 3.6 | 2.4 | 1.9 | 3.3 | 2.1 | 3.4 | 4.1 | 1.8
4 | CC(C)(C#N)c1cc(Cn2cncn2)cc(C(C)(C)C#N)c1 [Anastrozole] | 0 | 0 | 0 | 0 | 0 | 0 | 0 | 0 | 0 | 0 | 0 | 0
5 | C[C@]1(c2nc3c(C(N)=O)cccc3[nH]2)CCCN1 [Veliparib] | 0 | 0 | 0 | 0 | 0 | 0 | 0 | 0.7 | 0 | 1.3 | 0.2 | 0.4
6 | C[C@H]1C[C@@H](n2c(Nc3ccc(OC(F)(F)F)cc3)nc3cc(CCC(=O)O)ccc32)CC(C)(C)C1 | 0 | 0 | 0 | 0 | 0 | 0 | 0 | 0 | 0 | 0 | 0.1 | 0
7 | CCOC(=O)C1=CCCC[C@H]1S(=O)(=O)Nc1ccc(F)cc1Cl [Resatorvid] | 0 | 0 | 0 | 0 | 0 | 0 | 0 | 0 | 0 | 0 | 0 | 0
8 | CC(=O)c1cc2c(o1)C(=O)c1ccccc1C2=O [Napabucasin] | 18.2 | 16.2 | 12.4 | 28.9 | 24.2 | 18.6 | 16.7 | 17.9 | 19 | 21.3 | 16.3 | 17.3
9 | CCN(CC)CCOc1ccc(C(=C(Cl)c2ccccc2)c2ccccc2)cc1 [Clomifene] | 3.2 | 2.2 | 4.4 | 5.8 | 4.1 | 3.8 | 3.9 | 6.9 | 1.9 | 7 | 3.1 | 3.2
10 | Oc1ccc2c(c1)CC[C@H](c1ccccc1)[C@@H]2c1ccc(OCCN2CCCC2)cc1 [Lasofoxifene] | 0 | 0 | 0 | 0 | 0 | 0 | 0.3 | 0 | 0 | 0 | 0 | 0
11 | C/C=C1\NC(=O)[C@H]2CSSCC/C=C/[C@H](CC(=O)N[C@H](C(C)C)C(=O)N2)OC(=O)[C@H](C(C)C)NC1=O [Romidepsin] | 28.2 | 12.3 | 11.9 | 39.3 | 35.8 | 22.7 | 27.8 | 29.8 | 20.8 | 33.3 | 28.1 | 25.9
12 | CN1CCN(c2ccc(C(=O)Nc3n[nH]c4ccc(Cc5cc(F)cc(F)c5)cc34)c(NC3CCOCC3)c2)CC1 [Entrectinib] | 0.6 | 0 | 0.1 | 0.1 | 0 | 0 | 0 | 0 | 1 | 1 | 0 | 1.5
13 | CS(=O)(=O)CCNCc1ccc(-c2ccc3ncnc(Nc4ccc(OCc5cccc(F)c5)c(Cl)c4)c3c2)o1 [Lapatinib] | 2.4 | 0 | 0 | 0 | 0 | 0 | 0 | 0 | 0 | 0.7 | 0 | 0
14 | CNC(=O)c1cc(Oc2ccc(NC(=O)Nc3ccc(Cl)c(C(F)(F)F)c3)cc2)ccn1 [Sorafenib] | 0 | 0 | 0 | 0 | 0 | 0 | 0 | 0 | 0 | 0 | 0 | 0
15 | Cc1cc(OCc2nnc(SC3CCCC3)n2-c2cccnc2)ccc1-c1ccc(S(C)(=O)=O)cc1 [NMS-873] | 8.6 | 8.7 | 4.4 | 9.3 | 8.1 | 6.7 | 6.8 | 12.4 | 7.9 | 8.9 | 19.9 | 6.9
16 | COc1c(C)cnc(Cn2cnc3c(Cl)nc(N)nc32)c1C [BIIB021] | 16 | 7 | 9.5 | 15 | 20.5 | 20.6 | 9 | 18.5 | 9.9 | 17.3 | 19.7 | 3.3

Row | SMILES | drug sensitivity score [1] | drug sensitivity score [2] | drug sensitivity score [3] | drug sensitivity score [4] | drug sensitivity score [5] | drug sensitivity score [6] | drug sensitivity score [7] | drug sensitivity score [8] | drug sensitivity score [9] | drug sensitivity score [10] | drug sensitivity score [11] | drug sensitivity score [12]
17 | C=CC(=O)Nc1cc2c(Nc3ccc(F)c(Cl)c3)ncnc2cc1OCCCN1CCOCC1 [Canertinib] | 13.2 | 4.3 | 5.9 | 8.4 | 8.2 | 7.5 | 8 | 7.3 | 7.7 | 8 | 8.4 | 8.3
18 | O=C(Nc1cccnc1)N1CCC(Cc2cccc(Oc3ccc(C(F)(F)F)cn3)c2)CC1 [PF-3845] | 1.6 | 0 | 0 | 0 | 0 | 0 | 0 | 2 | 0.3 | 1 | 6.5 | 0
19 | N#CC1(c2ccc(NC(=O)c3cccnc3NCc3ccncc3)cc2)CCCC1 [Apatinib] | 0 | 0 | 0 | 0 | 0 | 0 | 0 | 0 | 0 | 0.5 | 0 | 0.3
20 | Cc1cccc(CC(=O)N2CCc3c2ccc(-c2cn(C)c4ncnc(N)c24)c3F)n1 | 0.4 | 0 | 0 | 0 | 0 | 0 | 0.2 | 0 | 1.1 | 0 | 1.5 | 0
21 | NC(=S)N/N=C/c1ncccc1N [Triapine] | 4.1 | 0.6 | 0.5 | 9.7 | 7.7 | 3.1 | 0.5 | 1.1 | 0 | 2.6 | 4.9 | 2.4
22 | Cc1cccc(-c2[nH]c(CNc3ccccc3F)nc2-c2ccc3ncnn3c2)n1 [TEW-7197] | 0 | 0 | 5 | 0 | 0.9 | 0 | 0 | 0 | 0 | 1.3 | 0.1 | 0
23 | CN(C)C(=O)c1cc2cnc(Nc3ccc(N4CCNCC4)cn3)nc2n1C1CCCC1 [Ribociclib] | 0 | 0.2 | 0 | 0 | 0 | 2.9 | 0 | 0.6 | 0.6 | 2.3 | 0 | 0
24 | COc1cc(C(=O)O)ccc1NC(=O)[C@@H]1N[C@@H](CC(C)(C)C)[C@](C#N)(c2ccc(Cl)cc2F)[C@H]1c1cccc(Cl)c1F [Idasanutlin] | 0 | 0 | 0 | 16 | 10.5 | 0 | 0 | 0 | 1.2 | 0.7 | 3.3 | 0
25 | C[C@@H](Nc1cc(F)cc(F)c1)c1cc(C(=O)N(C)C)cc2c(=O)cc(N3CCOCC3)oc12 [AZD-8186] | 2.1 | 0.7 | 0 | 0.1 | 0.3 | 0.8 | 7.1 | 0.1 | 3.1 | 1.9 | 0.6 | 6.3
26 | C[C@]1(O)C[C@@H](c2nc(-c3ccc4ccc(-c5ccccc5)nc4c3)c3c(N)nccn32)C1 [Linsitinib] | 1.4 | 0 | 0 | 0.7 | 2 | 0 | 0 | 0.9 | 0 | 2.7 | 0.3 | 0
27 | CCn1c(C(=O)N(C2CC2)C2CC2)cc2c3c(ncn3C)c(Nc3cc(C)n(C)n3)nc21 | 0 | 0.4 | 0.2 | 0 | 0 | 0 | 2.6 | 0.5 | 0.3 | 0 | 0 | 0
28 | CC[C@@](C)(Nc1ccnc(-c2c[nH]c3ncccc23)n1)C(=O)NCC(F)(F)F [Decernotinib] | 0 | 0 | 0 | 0 | 0.6 | 0 | 0 | 0 | 0 | 0 | 0 | 0
29 | CN(C)CCOc1ccc(/C(=C(/CCCl)c2ccccc2)c2ccccc2)cc1 [Toremifene] | 1.8 | 2.3 | 0.6 | 3.5 | 1.6 | 2 | 3.5 | 5.3 | 2 | 4.9 | 2.9 | 3.5
30 | Cc1[nH]nc(C(F)(F)F)c1Cc1sc2c(c1C(=O)N1C[C@](C)(O)CO1)c(=O)n(C)c(=O)n2C(C)C [AZD3965] | 0 | 0 | 0 | 0 | 0 | 0 | 0 | 4.2 | 0 | 0 | 0 | 0.8
31 | COc1cc(Nc2ncc(F)c(Nc3ccc4c(n3)NC(=O)C(C)(C)O4)n2)cc(OC)c1OC [Tamatinib] | 0 | 0.3 | 0 | 0 | 6.2 | 0 | 1.5 | 0 | 0 | 4.5 | 0 | 3.8
